# PubChem BioAssay (NCI)
#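 96-well plates; 48 h exposure; 5 concentrations. Endpoints by linear interpolation between flanking doses. Not reached: highest tested concentration assigned. GI50 is the concentration that inhibits growth by half. TGI is the concentration that stops growth completely.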
# Columns and labels:
# Assay in all cases: inhibition of tumour cell growth, NCI panel, 48 h
# 786-0 renal = system: 786-0 renal
# HL-60(TB) leukemia = system: HL-60(TB) leukemia
# ACHN renal = system: ACHN renal
# EKVX NSCLC = system: EKVX NSCLC
# HOP-62 NSCLC = system: HOP-62 NSCLC
# SF-539 CNS = system: SF-539 CNS
# SK-MEL-5 melanoma = system: SK-MEL-5 melanoma
# TK-10 renal = system: TK-10 renal
# MCF7 breast = system: MCF7 breast
# NCI-H522 lung = system: NCI-H522 lung
# SNB-19 CNS = system: SNB-19 CNS
# SK-MEL-2 melanoma = system: SK-MEL-2 melanoma
# LOX IMVI melanoma = system: LOX IMVI melanoma
# MALME-3M melanoma = system: MALME-3M melanoma
# SF-295 CNS = system: SF-295 CNS
# CCRF-CEM leukemia = system: CCRF-CEM leukemia
# M14 melanoma = system: M14 melanoma
# NCI-H460 lung = system: NCI-H460 lung
# SW-620 colon = system: SW-620 colon
# OVCAR-8 ovarian = system: OVCAR-8 ovarian
# MDA-MB-231 breast = system: MDA-MB-231 breast
# HS 578T breast = system: HS 578T breast
# NCI-H23 lung = system: NCI-H23 lung
# UACC-257 melanoma = system: UACC-257 melanoma
# SK-MEL-28 melanoma = system: SK-MEL-28 melanoma
# A498 renal = system: A498 renal
# BT-549 breast = system: BT-549 breast
# U251 CNS = system: U251 CNS
# IGROV1 ovarian = system: IGROV1 ovarian
# NCI/ADR-RES ovarian = system: NCI/ADR-RES ovarian
# SK-OV-3 ovarian = system: SK-OV-3 ovarian
# MOLT-4 leukemia = system: MOLT-4 leukemia
# A549 NSCLC = system: A549 NSCLC
# OVCAR-4 ovarian = system: OVCAR-4 ovarian
# KM12 colon = system: KM12 colon
# RXF 393 renal = system: RXF 393 renal
# COLO 205 colon = system: COLO 205 colon
# HCT-116 colon = system: HCT-116 colon
# RPMI-8226 leukemia = system: RPMI-8226 leukemia
# OVCAR-3 ovarian = system: OVCAR-3 ovarian
# HT29 colon = system: HT29 colon
# OVCAR-5 ovarian = system: OVCAR-5 ovarian
# SF-268 CNS = system: SF-268 CNS
# NCI-H226 lung = system: NCI-H226 lung
# MDA-MB-435 = system: MDA-MB-435
# UACC-62 melanoma = system: UACC-62 melanoma
# HOP-92 NSCLC = system: HOP-92 NSCLC
# T-47D breast = system: T-47D breast
# SNB-75 CNS = system: SNB-75 CNS
# K-562 leukemia = system: K-562 leukemia
# HCC-2998 colon = system: HCC-2998 colon
# CAKI-1 renal = system: CAKI-1 renal
# HCT-15 colon = system: HCT-15 colon
# UO-31 renal = system: UO-31 renal
# SN12C renal = system: SN12C renal
# DU-145 prostate = system: DU-145 prostate
# PC-3 prostate = system: PC-3 prostate
# SR leukemia = system: SR leukemia
structure (smiles),measurement,setting,value
CC(=O)OC1Oc2cc(C)c(C)cc2-c2oc(=O)c(-c3ccccc3)cc21 (centres undefined),GI50,786-0 renal,429 nM
same,TGI,786-0 renal,24.8 µM
same,GI50,HL-60(TB) leukemia,111 nM
same,TGI,HL-60(TB) leukemia,467 nM
same,GI50,ACHN renal,1340 nM
same,TGI,ACHN renal,> 100 µM
same,GI50,EKVX NSCLC,685 nM
same,TGI,EKVX NSCLC,> 100 µM
same,GI50,HOP-62 NSCLC,440 nM
same,TGI,HOP-62 NSCLC,21.9 µM
same,GI50,SF-539 CNS,232 nM
same,TGI,SF-539 CNS,762 nM
same,GI50,SK-MEL-5 melanoma,231 nM
same,TGI,SK-MEL-5 melanoma,4.06 µM
same,GI50,TK-10 renal,1140 nM
same,TGI,TK-10 renal,> 44.9 µM
same,GI50,MCF7 breast,280 nM
same,TGI,MCF7 breast,27.5 µM
same,GI50,NCI-H522 lung,177 nM
same,TGI,NCI-H522 lung,4.81 µM
same,GI50,SNB-19 CNS,496 nM
same,TGI,SNB-19 CNS,28.7 µM
same,GI50,SK-MEL-2 melanoma,572 nM
same,TGI,SK-MEL-2 melanoma,> 63.3 µM
same,GI50,LOX IMVI melanoma,1470 nM
same,TGI,LOX IMVI melanoma,> 100 µM
same,GI50,MALME-3M melanoma,407 nM
same,TGI,MALME-3M melanoma,> 34.7 µM
same,GI50,SF-295 CNS,448 nM
same,TGI,SF-295 CNS,> 34.9 µM
same,GI50,CCRF-CEM leukemia,364 nM
same,TGI,CCRF-CEM leukemia,> 100 µM
same,GI50,M14 melanoma,351 nM
same,TGI,M14 melanoma,> 100 µM
same,GI50,NCI-H460 lung,338 nM
same,TGI,NCI-H460 lung,14.2 µM
same,GI50,SW-620 colon,242 nM
same,TGI,SW-620 colon,> 100 µM
same,GI50,OVCAR-8 ovarian,545 nM
same,TGI,OVCAR-8 ovarian,> 84.5 µM
same,GI50,MDA-MB-231 breast,584 nM
same,TGI,MDA-MB-231 breast,30.9 µM
same,GI50,HS 578T breast,244 nM
same,TGI,HS 578T breast,1420 nM
same,GI50,NCI-H23 lung,615 nM
same,TGI,NCI-H23 lung,> 100 µM
same,GI50,UACC-257 melanoma,537 nM
same,TGI,UACC-257 melanoma,39 µM
same,GI50,SK-MEL-28 melanoma,464 nM
same,TGI,SK-MEL-28 melanoma,55.6 µM
same,GI50,A498 renal,271 nM
same,TGI,A498 renal,3.11 µM
same,GI50,BT-549 breast,7.34 µM
same,TGI,BT-549 breast,> 31.9 µM
same,GI50,U251 CNS,440 nM
same,TGI,U251 CNS,58.8 µM
same,GI50,IGROV1 ovarian,139 nM
same,TGI,IGROV1 ovarian,432 nM
same,GI50,NCI/ADR-RES ovarian,213 nM
same,TGI,NCI/ADR-RES ovarian,908 nM
same,GI50,SK-OV-3 ovarian,407 nM
same,TGI,SK-OV-3 ovarian,37.3 µM
same,GI50,MOLT-4 leukemia,355 nM
same,GI50,A549 NSCLC,608 nM
same,TGI,A549 NSCLC,> 53.8 µM
same,GI50,OVCAR-4 ovarian,3.92 µM
same,TGI,OVCAR-4 ovarian,> 100 µM
same,GI50,KM12 colon,307 nM
same,TGI,KM12 colon,11.8 µM
same,GI50,RXF 393 renal,343 nM
same,TGI,RXF 393 renal,37.1 µM
same,GI50,COLO 205 colon,385 nM
same,TGI,COLO 205 colon,3.64 µM
same,GI50,HCT-116 colon,455 nM
same,TGI,HCT-116 colon,46.9 µM
same,GI50,RPMI-8226 leukemia,287 nM
same,TGI,RPMI-8226 leukemia,969 nM
same,GI50,OVCAR-3 ovarian,114 nM
same,TGI,OVCAR-3 ovarian,355 nM
same,GI50,HT29 colon,323 nM
same,TGI,HT29 colon,4.39 µM
same,GI50,OVCAR-5 ovarian,5.18 µM
same,TGI,OVCAR-5 ovarian,> 100 µM
same,GI50,SF-268 CNS,580 nM
same,TGI,SF-268 CNS,> 50.6 µM
same,GI50,NCI-H226 lung,2770 nM
same,GI50,MDA-MB-435,36 nM
same,TGI,MDA-MB-435,199 nM
same,GI50,UACC-62 melanoma,289 nM
same,TGI,UACC-62 melanoma,> 32.6 µM
same,GI50,HOP-92 NSCLC,1980 nM
same,TGI,HOP-92 NSCLC,61.8 µM
same,GI50,T-47D breast,352 nM
same,TGI,T-47D breast,> 68.1 µM
same,GI50,SNB-75 CNS,210 nM
same,TGI,SNB-75 CNS,902 nM
same,GI50,K-562 leukemia,178 nM
same,TGI,K-562 leukemia,> 100 µM
same,GI50,HCC-2998 colon,971 nM
same,TGI,HCC-2998 colon,> 30.8 µM
same,GI50,CAKI-1 renal,525 nM
same,TGI,CAKI-1 renal,> 54.1 µM
same,GI50,HCT-15 colon,323 nM
same,TGI,HCT-15 colon,> 100 µM
same,GI50,UO-31 renal,499 nM
same,TGI,UO-31 renal,35.9 µM
same,GI50,SN12C renal,487 nM
same,TGI,SN12C renal,> 100 µM
same,GI50,DU-145 prostate,297 nM
same,TGI,DU-145 prostate,1200 nM
same,GI50,PC-3 prostate,435 nM
same,TGI,PC-3 prostate,> 100 µM
same,GI50,SR leukemia,215 nM
same,TGI,SR leukemia,> 100 µM
